Results taken from paper PMC7108740, “Exploring the molecular structures that confer ligand selectivity for galanin type II and III receptors” (PLoS ONE, 2020).
Positions count from the first letter of the chain named. Ends that are not written are not given here.

How the values were obtained:
Type in all cases: cell-based
[1] = biological target: T1, GALR3 single mutant A^190V (Homo sapiens, UniProt O60755, A190V); assay: SRE-luc luciferase assay, GALR3 A190V; details: GALR3 A^190V; SRE-luc in HEK293 Gqi cells, ligand 6 h; mean ± S.E.; SEM
T1 construct: expressed in transfected cells; host or cells: HEK293 cells stably expressing Gqi
T1 sequence (O60755 whole entry A190V): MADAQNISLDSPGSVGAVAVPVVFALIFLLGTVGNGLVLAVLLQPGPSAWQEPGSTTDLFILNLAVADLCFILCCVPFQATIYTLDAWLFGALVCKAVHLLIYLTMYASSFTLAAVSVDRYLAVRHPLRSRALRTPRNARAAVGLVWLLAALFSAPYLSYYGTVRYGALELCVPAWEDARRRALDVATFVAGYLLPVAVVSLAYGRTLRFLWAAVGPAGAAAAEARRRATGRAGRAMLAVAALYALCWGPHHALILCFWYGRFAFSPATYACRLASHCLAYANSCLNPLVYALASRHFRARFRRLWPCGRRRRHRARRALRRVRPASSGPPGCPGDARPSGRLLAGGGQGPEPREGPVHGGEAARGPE
Source text: (§1) For domain swapping between GALR2 and GALR3, individual cDNA fragments of interest were amplified by polymerase chain reaction (PCR) with Pfu polymerase (ELPIS Biotech, Daejeon, Korea) and two specific primers, one corresponding to the 5' or 3' end of the GALR2 or GALR3 cDNA and the other to the region of overlap between the two receptors. The two resulting fragments, one from GALR2 and the other from GALR3, were subjected to a second round of PCR to generate the chimeric cDNAs. To construct single, double-, triple-, pentuple-, hextuple-, and septuple-mutant receptors, amino acids of GALR3 were substituted for the amino acids at the corresponding positions in GALR2 using PCR-based site-directed mutagenesis. All of the chimeric constructs were cloned into the pcDNA3 expression vector at HindⅢ and XbaⅠ sites. The DNA sequences of the chimeras were verified by automatic sequencing. […] The luciferase activity in 50 μl cell extract was determined using a luciferase assay system according to the standard protocol for the Synergy 2 Multi-Mode Microplate Reader (BioTek, Winooski, VT, USA). […] The concentrations of agonists that induced half-maximal stimulation (EC50) were calculated using the GraphPad PRISM5 software (GraphPad software, Inc., San Diego, CA). […]

[2] = biological target: T2, GALR3 single mutant L^100F (Homo sapiens, UniProt O60755, L100F); assay: SRE-luc luciferase assay, GALR3 L100F; details: GALR3 L^100F; SRE-luc in HEK293 Gqi cells, ligand 6 h; mean ± S.E.; SEM
T2 construct: expressed in transfected cells; host or cells: HEK293 cells stably expressing Gqi
T2 sequence (O60755 1-368 L100F): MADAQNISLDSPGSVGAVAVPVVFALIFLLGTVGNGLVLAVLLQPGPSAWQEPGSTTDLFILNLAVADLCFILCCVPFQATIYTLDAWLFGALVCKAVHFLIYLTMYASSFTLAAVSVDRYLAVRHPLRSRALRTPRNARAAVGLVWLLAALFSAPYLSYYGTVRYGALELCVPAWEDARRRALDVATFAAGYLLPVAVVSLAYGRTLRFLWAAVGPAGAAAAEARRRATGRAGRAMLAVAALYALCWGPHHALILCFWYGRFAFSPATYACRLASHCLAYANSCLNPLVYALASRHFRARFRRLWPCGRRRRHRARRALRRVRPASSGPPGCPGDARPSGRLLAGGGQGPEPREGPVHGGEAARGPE
Source text: as §1, with “sequencing. HEK293 cells stably expressing the Gqi construct, which allows induction of Gq-dependent signaling pathways upon activation of a Gi-coupled receptor [14, 30], were maintained in Dulbecco's Modified Eagle's Medium (DMEM) in the presence of 10% fetal bovine serum and 1% penicillin and streptomycin. For all transfections, 200 ng DNA (100 ng receptor and 100 ng SRE-luc) mixed with lipofectamine 2000 was applied to 60–80% confluent cells on a multi-well plate according to the manufacturer's instructions (Invitrogen, Carlsbad, CA). For luciferase assays, HEK293 Gqi cells were seeded on 48-well plates at a density of 2.5 × 10^4 cells/well one day before transfection.” for “sequencing.”

[3] = biological target: T3, GALR3 triple mutant L^100F, Y^103F, Y^107H (Homo sapiens, UniProt O60755, L100F/Y103F/Y107H); assay: SRE-luc luciferase assay, GALR3 L100F,Y103F,Y107H; details: GALR3 L^100F, SRE-luc in HEK293 Gqi cells, ligand 6 h, mean ± S.E., SEM
T3 construct: expressed in transfected cells; host or cells: HEK293 cells stably expressing Gqi
T3 sequence (O60755 1-368 L100F/Y103F/Y107H): T2 sequence (O60755 1-368 L100F) with Y103F, Y107H
Source text: as §1, with “sequencing. HEK293 cells stably expressing the Gqi construct, which allows induction of Gq-dependent signaling pathways upon activation of a Gi-coupled receptor [14, 30], were maintained in Dulbecco's Modified Eagle's Medium (DMEM) in the presence of 10% fetal bovine serum and 1% penicillin and streptomycin. For all transfections, 200 ng DNA (100 ng receptor and 100 ng SRE-luc) mixed with lipofectamine 2000 was applied to 60–80% confluent cells on a multi-well plate according to the manufacturer's instructions (Invitrogen, Carlsbad, CA). For luciferase assays, HEK293 Gqi cells were seeded on 48-well plates at a density of 2.5 × 10^4 cells/well one day before transfection.” for “sequencing.”

[4] = biological target: T4, GALR3 single mutant A^187C (Homo sapiens, UniProt O60755, A187C); assay: SRE-luc luciferase assay, GALR3 A187C; details: GALR3 A^187C; SRE-luc in HEK293 Gqi cells, ligand 6 h; mean ± S.E.; SEM
T4 construct: expressed in transfected cells; host or cells: HEK293 cells stably expressing Gqi
T4 sequence (O60755 whole entry A187C): as the sequence (O60755 whole entry A190V) above, with A187C, V190A counted along it
Source text: as §1

[5] = biological target: T5, GALR3 single mutant G^192S (Homo sapiens, UniProt O60755, G192S); assay: SRE-luc luciferase assay, GALR3 G192S; details: GALR3 G^192S; SRE-luc in HEK293 Gqi cells, ligand 6 h; mean ± S.E.; SEM
T5 construct: expressed in transfected cells; host or cells: HEK293 cells stably expressing Gqi
T5 sequence (O60755 whole entry G192S): as the sequence (O60755 whole entry A190V) above, with V190A, G192S counted along it
Source text: as §1

[6] = biological target: T6, GALR3 double mutant L^100F, Y^103F (Homo sapiens, UniProt O60755, L100F/Y103F); assay: SRE-luc luciferase assay, GALR3 L100F,Y103F; details: GALR3 L^100F, SRE-luc in HEK293 Gqi cells, ligand 6 h, mean ± S.E., SEM
T6 construct: expressed in transfected cells; host or cells: HEK293 cells stably expressing Gqi
T6 sequence (O60755 1-368 L100F/Y103F): T2 sequence (O60755 1-368 L100F) with Y103F
Source text: as §1, with “sequencing. HEK293 cells stably expressing the Gqi construct, which allows induction of Gq-dependent signaling pathways upon activation of a Gi-coupled receptor [14, 30], were maintained in Dulbecco's Modified Eagle's Medium (DMEM) in the presence of 10% fetal bovine serum and 1% penicillin and streptomycin. For all transfections, 200 ng DNA (100 ng receptor and 100 ng SRE-luc) mixed with lipofectamine 2000 was applied to 60–80% confluent cells on a multi-well plate according to the manufacturer's instructions (Invitrogen, Carlsbad, CA). For luciferase assays, HEK293 Gqi cells were seeded on 48-well plates at a density of 2.5 × 10^4 cells/well one day before transfection.” for “sequencing.”

[7] = biological target: T7, GALR3 mutant L^184M,V^186I,A^187C, A^190V,G^192S (Homo sapiens, UniProt O60755, A187C/A190V/G192S/L184M/V186I); assay: SRE-luc luciferase assay, GALR3 pentuple mutant (G192S); details: GALR3 L^184M,V^186I,A^187C, SRE-luc in HEK293 Gqi cells, ligand 6 h, mean ± S.E., SEM
T7 construct: expressed in transfected cells; host or cells: HEK293 cells stably expressing Gqi
T7 sequence (O60755 whole entry L184M/V186I/A187C/A190V/G192S): as the sequence (O60755 whole entry A190V) above, with L184M, V186I, A187C, G192S counted along it
Source text: as §1

Compound: CSCC[C@H](NC(=O)[C@H](C)NC(=O)[C@H](CCC(N)=O)NC(=O)[C@@H]1CCCN1C(=O)[C@@H](NC(=O)[C@H](Cc1c[nH]c2ccccc12)NC(=O)[C@@H](N)CC(N)=O)[C@@H](C)O)C(=O)N[C@@H](CC(C)C)C(=O)N[C@@H](Cc1ccc(O)cc1)C(=O)N[C@@H](CC(C)C)C(=O)N[C@@H](CCCCN)C(=O)NCC(=O)N[C@@H](C)C(=O)N[C@@H](CCC(N)=O)C(N)=O [SPX, reference compound]
- EC50 [1]: 77.6 ± 18.7 nM
- EC50 [2]: 66.1 ± 13.6 nM
- EC50 [3]: 30.9 ± 9.03 nM
- EC50 [4]: 115 ± 27.7 nM
- EC50 [5]: 35.5 ± 12.6 nM
- EC50 [6]: 42.7 ± 9.54 nM
- EC50 [7]: 33.9 ± 9.89 nM

Compound: NWTPQAALYLKGAQ-NH2 [A^7-SPX]
- EC50 [2]: 269 ± 45.3 nM
- EC50 [3]: 64.6 ± 12.1 nM
- EC50 [6]: 155 ± 45.2 nM

Compound: NWTPQAMLYLKGPQ-NH2 [P^13-SPX]
- EC50 [1]: 468 ± 105 nM
- EC50 [4]: 550 ± 151 nM
- EC50 [5]: 355 ± 109 nM
- EC50 [7]: 145 ± 24.3 nM

Compound: NWTPNAMLYLKGAQ-NH2 [N^5-SPX]
- EC50 [2]: 288 ± 84.2 nM
- EC50 [3]: 83.2 ± 26.9 nM
- EC50 [6]: 174 ± 45 nM
